Results as given in patent US12622968B2, “Formulation for oral delivery of proteins, peptides and small molecules with poor permeability” (R.P. Scherer Technologies, LLC, priority 2019, dated 2026).
Where two headings read alike, the source gives them in different places.

Assay: Single dose oral capsule pharmacokinetics of BHV-3500 in dogs (plasma LC-MS/MS)
Format: in vivo, beagle dogs
Settings: female, beagle, dog, plasma; for Tmax: read-out: Tmax; for concentration at 1 h: 1 h post-dose; for concentration at 1 h / concentration at 2 h / concentration at 4 h: read-out: BHV-3500 Concentration in Dog Plasma; for concentration at 2 h: 2 h post-dose; for Cmax: read-out: Cmax; for concentration at 4 h: 4 h post-dose; for AUC(0-t): read-out: AUC0-4 hr
Procedure: The pharmacokinetics (PK) of BHV-3500 after a single oral capsule of BHV-3500 in dogs were investigated.
After each dose, blood samples (approximately 3 mL from the jugular vein) for determination of plasma levels of BHV-3500 were obtained from of each dog at six time points (pre-dose; 15, 30, and 60 minutes and 2 and 4 hours post-dose. EDTA was used as the anticoagulant. Plasma samples were frozen at approximately −70′C until analyzed.
For the determination of BHV-3500 in plasma, a 50 μL aliquot from each sample was transferred into the appropriate well of a 96-well plate to which 10 μL of 50% acetonitrile (ACN) in water was added, followed by 250 μL of internal standard solution (10 ng/mL BHV-3500-d8 in ACN). After sealing the plate and vortexing for approximately 5 minutes, the plate was centrifuged at 4,000 rpm for 10 minutes at 4±4° C. A portion (100 μL) of the resulting supernatant was transferred to into the appropriate well (containing 300 μL 0.15% formic acid in water) of another 96-well plate. This plate was sealed and its contents mixed prior to instrumental analysis.
Freshly prepared BHV-3500 standard curves and QC samples were analyzed along with the study samples. Instrument calibrators were prepared by adding 10 μL of a stock BHV-3500 solution to 50 μL of blank dog plasma. Blank dog plasma was sourced from BioIVT (Hicksville, NY) and stored frozen at −20° C. Nominal calibrator concentrations ranged from 2.00 to 200 ng/mL. QC samples were prepared at concentrations of 6.00, 50.0 and 150 ng/mL. Calibrators and QC samples were processed for analysis following the extraction procedure described above.
Calibrator, QC and study samples were analyzed under LC-S/MS instrument conditions detailed in Table 7.
Calibration curves were calculated from the linear regression (weighting factor of 1/x2) of the analyte to internal standard peak area ratios versus the analyte concentrations. Concentrations of analyte in the samples were determined using the peak area ratios and the regression parameters of the calibration curves.
Individual animal plasma BHV-3500 concentration data at scheduled (nominal) sampling times were analyzed using the non-compartmental model f r extravascular administration with Phoenix WinNonlin software (Version 8.1; Certara, Princeton, NJ).
Elimination rate constant values (λz) were calculated by log-linear regression on data points of the terminal phase (using Phoenix WinNonlin's Best Fit Lambda Z Calculation Method option) when allowed by the data; the plasma elimination half-life (t1/2) was calculated as ln(2)/λz. Area under the plasma concentration-time curve values from time zero to the concentration at the 4 hour time point (AUC0-4 hr) were calculated by the linear-up/log-down trapezoidal rule.
Nominal dose levels were used for PK analysis. The PK parameters listed below were evaluated (as applicable and when allowed by the data). • Elimination half-life (t1/2) • Time of occurrence of maximum plasma concentration (Tmax) • Maximum plasma concentration (Cmax) • Area under plasma concentration-time curve [0 to the 4 hour time point; AUC0-4hr]

[1] = po, 50 mg, Group 4, oral capsule, 50 mg BHV-3500, no vehicle, average
[2] = po, 50 mg, Group 4, oral capsule, 50 mg BHV-3500, no vehicle, individual dogs
[3] = po, 50 mg, Group 5, oral capsule, 50 mg BHV-3500 in 900 mg vehicle of Formulation 2 (SEDDS excipients), average
[4] = po, 50 mg, Group 6, oral capsule, 50 mg BHV-3500 in 25 mg DDM, average
[5] = po, 50 mg, Group 6, oral capsule, 50 mg BHV-3500 in 25 mg DDM, individual dogs
[6] = Group 2, oral capsule, 20 mg BHV-3500 in 900 mg vehicle of Formulation 2 (SEDDS excipients), individual dogs

For `Cc1cc(C[C@@H](NC(=O)N2CCC(c3cc4ccccc4[nH]c3=O)CC2)C(=O)N2CCN(C3CCN(C)CC3)CC2)cc2cn[nH]c12` [BHV-3500, (R)—N-(3-(7-methyl-1H indazol-5-yl)-1-(4-(1-methylpiperidin-4-yl)piperazin-1-yl)-1-oxopropan-2-yl)-4-(2-oxo-1,2 dihydroquinolin-3-yl)piperidine-1-carboxamide], the Tmax (po, 20 mg, Group 3, oral capsule, 20 mg BHV-3500 in 25 mg DDM, median) was 2 h, the concentration at 1 h [1] was 3.35 ng/mL and the concentration at 1 h [2] was 2.25 ng/mL. It also gave a concentration at 2 h [1] of 6.18 ng/mL, a concentration at 2 h [2] of 7.57 ng/mL and a Cmax [1] of 6.18 ng/mL. It also gave a Cmax [2] of 7.57 ng/mL, a Tmax [2] of 2 h and a Tmax (po, 50 mg, Group 4, oral capsule, 50 mg BHV-3500, no vehicle, median) of 2 h. The concentration at 1 h [3] was 11.5 ng/mL, the concentration at 2 h [3] was 40.6 ng/mL and the concentration at 4 h [3] was 7.97 ng/mL. The AUC(0-t) [3] was 70.6 ng·h/mL, the Cmax [3] was 40.6 ng/mL and the Tmax (po, 50 mg, Group 5, oral capsule, 50 mg BHV-3500 in 900 mg vehicle of Formulation 2 (SEDDS excipients), individual dogs) was 2 h. The Tmax (po, 50 mg, Group 5, oral capsule, 50 mg BHV-3500 in 900 mg vehicle of Formulation 2 (SEDDS excipients), median) was 2 h, the concentration at 1 h [4] was 2.42 ng/mL and the concentration at 1 h [5] was 2.42 ng/mL. It also gave a concentration at 2 h [4] of 6.05 ng/mL, a concentration at 2 h [5] of 6.05 ng/mL and a concentration at 4 h [4] of 8.67 ng/mL. It also gave a concentration at 4 h [5] of 12 ng/mL, an AUC(0-t) [4] of 17.3 ng·h/mL and a Cmax [4] of 6.59 ng/mL. It also gave a Tmax (po, 50 mg, Group 6, oral capsule, 50 mg BHV-3500 in 25 mg DDM, median) of 4 h, a concentration at 1 h [6] of 2.57 ng/mL and a concentration at 4 h [6] of 3.09 ng/mL. It also gave a concentration at 4 h (Group 6, oral capsule, 50 mg BHV-3500 in 25 mg DDM, individual dogs) of 5.34 ng/mL.
